Read-outs that look alike come from different tables or passages of the source.
Columns and labels:
[1] = target: T1, human 5-hydroxytryptamine2C (h5HT2C) receptor (Homo sapiens, UniProt P28335); test: 5HT2C receptor binding test procedure ([125I]DOI displacement, CHO cell membranes)
T1 sequence (P28335 33-458): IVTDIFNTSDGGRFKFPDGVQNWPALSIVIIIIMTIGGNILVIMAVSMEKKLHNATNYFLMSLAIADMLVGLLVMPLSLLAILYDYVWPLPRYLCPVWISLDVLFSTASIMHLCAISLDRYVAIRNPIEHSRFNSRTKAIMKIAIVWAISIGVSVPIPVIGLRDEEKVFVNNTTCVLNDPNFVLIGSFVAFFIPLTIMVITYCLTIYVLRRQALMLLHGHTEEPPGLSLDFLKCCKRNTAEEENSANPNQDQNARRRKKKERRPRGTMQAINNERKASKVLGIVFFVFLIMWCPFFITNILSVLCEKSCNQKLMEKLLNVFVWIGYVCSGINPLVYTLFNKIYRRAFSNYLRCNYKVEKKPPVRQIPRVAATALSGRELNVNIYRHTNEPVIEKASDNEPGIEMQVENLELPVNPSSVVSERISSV

[2] = tested on: male Sprague-Dawley rats; test: Effects of compounds on feeding behavior in rats (24 hr fast, 2 hour food intake); format: in vivo, rat; settings: ip, dose giving 50% reduction in food intake
Experimental: Effects of Compounds on Feeding Behavior in Rats
Eight (8) male Sprague-Dawley rats weighing 150-180 g were separated into individual cages and acclimated to a powdered diet for 2 weeks. During this period and throughout the test procedure, the food cup and the animals were weighed daily. Following the acclimation period, animals were fasted for 24 hours and then injected with either vehicle or one of 4 doses of the test compound. Food intake was assessed at 2 and 24 hours following compound administration. Compounds to be evaluated were injected 1-2× per week until all animals had received all doses of the test compound. The order of doses were chosen using to a modified Latin Square design. Additional studies may be conducted in satieted rats at the start of the dark cycle. Compounds were injected i.p, s.c. or p.o. At the end of the study effects of the test compound on food intake was evaluated using a repeated measures ANOVA. Data were collected were 2 hour food intake (g). Data were subjected to one-way ANOVA with posthoc t-tests to assess group differences. Where appropriate, ED50 values were calculated.

[3] = target: T2, human 5-HT2C receptor (Homo sapiens, UniProt P28335); test: Stimulation of [3H] inositol monophosphate production by 5HT2C agonists in transfected CHO cells; format: cell-based; settings: read-out: 5HT2C % Emax (5HT, 100%)
T2 construct: expressed in transfected cells; host or cells: CHO cells
T2 sequence (P28335 33-458): T1 sequence (P28335 33-458)

[4] = rat; Martin et al. 1989; cited from earlier work
[5] = several animal species and humans; Cowen et al. 1995; cited from earlier work
[6] = 5-HT2C Affinity DOI/Agonist Binding (Ki, μM), [125I]DOI agonist binding

COc1cc(CC(C)N)c(OC)cc1I (stereo not drawn) [[^125I] DOI, reference compound]
Kd ([1]; read-out: dissociation constant, KD of [125I] DOI at the human serotonin 5HT2C receptor, saturation binding with increasing concentrations of [125I] DOI): 0.4 nM

c1cc2c3c(c1)C1CCCC1N3CCNC2 (stereo not drawn) [Example 2, 1,2,3,4,8,9,10,10a-octahydro-7bH-cyclopenta[b][1,4]diazepino[6,7,1-hi]indole]
ED50 ([2]; Rattus norvegicus, read-out: ED50): 8.05 mg/kg
Emax [3]: 110%

CC1CN2c3c(cccc3C3CCCC32)CN1 (single isomer, unassigned) [Example 10]
Ki [1, 6]: 4.3 µM

CC1CN2c3c(cccc3C3CCCC32)CN1 (single isomer, unassigned) [Example 9]
Ki [1, 6]: 0.91 µM

c1cc2c3c(c1)[C@@H]1CCC[C@@H]1N3CCNC2 [Example 4A, (7bS,10aS)-1,2,3,4,8,9,10,10a-octahydro-7bH-cyclopenta-[b][1,4]diazepino-[6,7,1-hi]indole]
Emax [3]: 40%

Clc1cccc(N2CCNCC2)c1 [mCPP, meta-chlorophenylpiperazine]
effect on conditioned avoidance responding (CAR) [4]: block conditioned avoidance responding
effect on food intake [5]: decreases food intake

OC[C@H]1CN2c3c(cccc3C3CCCC32)CN1 (single isomer, unassigned) [Example 11]
Ki [1, 6]: 1.9 µM

C[C@@H]1NCCN2c3c1cccc3[C@@H]1CCC[C@@H]12 (relative stereo) [Example 12, rel-(4S,7bS,10aS)-4-Methyl-1,2,3,4,8,9,10,10a-Octahydro-7bH-Cyclopenta[b][1,4]Diazepino[6,7,1-hi]Indole]
Ki [1, 6]: > 5 µM

Cc1cc2c3c(c1)c1c(n3CCNC2)CCC1 [Example 6, 6-Methyl-1,2,3,4,9,10-hexahydro-8H-cyclopenta[b][1,4]diazepino[6,7,1-hi]indole]
Ki ([1]; read-out: 5HT2C Affinity DOI/Agonist binding (Ki), [125I]DOI agonist binding): 0.985 µM
melting point: 168 to 170 °C

c1cc2c3c(c1)[C@H]1CCC[C@H]1N3CCNC2 [Example 4B, 7bR,10aR)-1,2,3,4,8,9,10,10a-octahydro-7bH-cyclopenta-[b][1,4]diazepino[6,7,1-hi]indole]
ED50 [2]: 2.93 mg/kg

C[C@H]1NCCN2c3c1cccc3[C@@H]1CCC[C@@H]12 (relative stereo) [Example 13, rel-(4R,7bS,10aS)-4-Methyl-1,2,3,4,8,9,10,10a-Octahydro-7bH-Cyclopenta[b][1,4]Diazepino[6,7,1-hi]Indole]
Ki [1, 6]: 0.31 µM

c1cc2c3c(c1)c1c(n3CCNC2)CCC1 [Example 1, 1,2,3,4,9,10-Hexahydro-8H-cyclopenta[b][1,4]diazepino[6,7,1-hi]indole]
melting point: 66 to 68 °C

CSc1ccc2c(c1)C(N1CCN(C)CC1)Cc1ccccc1S2 (stereo not drawn) [Methiothepin, reference compound]
Ki ([1]; reference compounds, [125I]DOI binding, h5HT2C in CHO membranes, read-out: Ki value and 95% confidence interval): 0.0046 µM

CC1CN2c3c(cccc3C3CCCC32)CN1 (single isomer, unassigned) [Example 8]
Ki [1, 6]: 5.9 µM

CC1CN2c3c(cccc3C3CCCC32)CN1 (single isomer, unassigned) [Example 7]
Ki [1, 6]: 6 µM
